Our source for the IC50, EC50 and AC50 values is ChEMBL document CHEMBL1201862, “PubChem BioAssay data set” (2004).

Experiment [1] concerns the target T1, Caspase-3 (Homo sapiens, UniProt P42574).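 Further: Dose-response selectivity test against caspase-3 for candidate inhibitors of sentrin-specific proteases (SENPs).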
T1 sequence (P42574 whole entry): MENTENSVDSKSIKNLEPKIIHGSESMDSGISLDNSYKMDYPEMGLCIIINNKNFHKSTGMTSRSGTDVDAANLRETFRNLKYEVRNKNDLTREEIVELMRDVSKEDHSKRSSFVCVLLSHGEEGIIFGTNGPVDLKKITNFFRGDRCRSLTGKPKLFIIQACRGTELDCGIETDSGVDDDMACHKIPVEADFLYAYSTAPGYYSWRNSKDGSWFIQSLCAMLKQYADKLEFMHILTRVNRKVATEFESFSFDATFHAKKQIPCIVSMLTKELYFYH
In kind it is functional.

Experiment [2] deals with T2, Sentrin-specific protease 6 (Homo sapiens, UniProt Q9GZR1).
T2 sequence (Q9GZR1 whole entry): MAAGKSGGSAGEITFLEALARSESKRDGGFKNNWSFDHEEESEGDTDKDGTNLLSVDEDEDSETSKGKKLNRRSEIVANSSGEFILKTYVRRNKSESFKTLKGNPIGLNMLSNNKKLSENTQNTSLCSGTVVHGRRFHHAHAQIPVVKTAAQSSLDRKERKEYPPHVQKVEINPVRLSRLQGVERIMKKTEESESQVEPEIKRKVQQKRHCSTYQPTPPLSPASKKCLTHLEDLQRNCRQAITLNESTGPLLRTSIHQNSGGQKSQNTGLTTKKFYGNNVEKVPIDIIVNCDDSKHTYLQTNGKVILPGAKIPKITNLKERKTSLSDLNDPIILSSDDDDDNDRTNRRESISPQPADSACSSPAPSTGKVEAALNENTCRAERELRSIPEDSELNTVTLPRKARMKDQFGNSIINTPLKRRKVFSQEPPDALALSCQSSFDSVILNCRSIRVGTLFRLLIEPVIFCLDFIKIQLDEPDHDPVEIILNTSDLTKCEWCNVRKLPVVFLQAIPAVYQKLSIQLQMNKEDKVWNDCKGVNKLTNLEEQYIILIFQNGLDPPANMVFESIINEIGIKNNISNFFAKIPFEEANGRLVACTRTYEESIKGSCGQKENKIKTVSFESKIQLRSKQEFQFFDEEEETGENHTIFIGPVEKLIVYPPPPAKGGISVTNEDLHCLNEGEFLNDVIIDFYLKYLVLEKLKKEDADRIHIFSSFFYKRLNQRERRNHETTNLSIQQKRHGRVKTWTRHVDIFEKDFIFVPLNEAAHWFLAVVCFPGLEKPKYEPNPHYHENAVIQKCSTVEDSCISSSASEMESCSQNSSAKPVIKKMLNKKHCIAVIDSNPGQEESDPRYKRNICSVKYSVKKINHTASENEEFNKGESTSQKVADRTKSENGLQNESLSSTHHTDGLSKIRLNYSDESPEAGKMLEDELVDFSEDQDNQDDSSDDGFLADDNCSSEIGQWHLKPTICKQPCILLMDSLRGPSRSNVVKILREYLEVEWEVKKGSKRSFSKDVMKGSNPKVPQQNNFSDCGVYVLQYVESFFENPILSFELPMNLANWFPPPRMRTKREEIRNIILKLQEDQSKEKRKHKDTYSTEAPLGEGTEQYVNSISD
The class given is functional.

For experiment [3], the target named is T3, Sentrin-specific protease 7 (Homo sapiens, UniProt Q9BQF6).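 Further: Luminescence-based dose-response confirmation of ultra-high-throughput screening hits, measuring inhibition of SENP7.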
T3 sequence (Q9BQF6 whole entry): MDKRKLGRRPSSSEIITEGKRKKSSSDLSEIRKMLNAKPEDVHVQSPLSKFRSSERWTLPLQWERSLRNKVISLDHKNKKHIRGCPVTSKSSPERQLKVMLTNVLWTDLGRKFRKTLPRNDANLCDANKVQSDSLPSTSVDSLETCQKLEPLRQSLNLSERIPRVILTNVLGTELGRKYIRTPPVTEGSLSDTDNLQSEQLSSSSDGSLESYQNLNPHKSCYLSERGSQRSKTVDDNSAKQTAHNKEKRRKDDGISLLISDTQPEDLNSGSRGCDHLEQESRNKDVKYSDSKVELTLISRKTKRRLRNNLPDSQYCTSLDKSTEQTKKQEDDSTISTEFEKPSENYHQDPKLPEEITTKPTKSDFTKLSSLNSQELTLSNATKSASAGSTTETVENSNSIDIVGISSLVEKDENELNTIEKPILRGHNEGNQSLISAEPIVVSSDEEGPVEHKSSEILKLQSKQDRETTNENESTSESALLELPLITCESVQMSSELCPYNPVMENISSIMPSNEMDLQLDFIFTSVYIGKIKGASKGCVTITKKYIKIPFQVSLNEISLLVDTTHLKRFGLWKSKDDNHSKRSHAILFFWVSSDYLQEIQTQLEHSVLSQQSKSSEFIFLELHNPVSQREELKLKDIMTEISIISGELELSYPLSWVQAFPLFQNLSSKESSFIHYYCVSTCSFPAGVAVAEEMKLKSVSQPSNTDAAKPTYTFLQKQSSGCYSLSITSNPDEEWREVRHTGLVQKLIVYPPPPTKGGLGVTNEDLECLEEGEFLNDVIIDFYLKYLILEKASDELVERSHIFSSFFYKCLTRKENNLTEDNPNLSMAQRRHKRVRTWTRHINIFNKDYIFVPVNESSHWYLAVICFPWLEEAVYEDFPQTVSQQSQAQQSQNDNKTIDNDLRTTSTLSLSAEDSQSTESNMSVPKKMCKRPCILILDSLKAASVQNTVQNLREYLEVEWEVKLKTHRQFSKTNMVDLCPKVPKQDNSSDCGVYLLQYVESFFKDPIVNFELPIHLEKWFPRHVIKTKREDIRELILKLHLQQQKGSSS
In kind it is functional.

Experiment [4] can be described thus: Luminescence Cell-Based Dose Response HTS to Identify Activators of Luciferase Translation or Activity in H4 […] Cells. [Related pubchem assays: 1829 (Project Summary), 1814 (Primary HTS)]. The class given is functional.
In experiment [5] the target is T4, Protein skinhead-1 (Caenorhabditis elegans, UniProt P34707).
T4 sequence (P34707 whole entry): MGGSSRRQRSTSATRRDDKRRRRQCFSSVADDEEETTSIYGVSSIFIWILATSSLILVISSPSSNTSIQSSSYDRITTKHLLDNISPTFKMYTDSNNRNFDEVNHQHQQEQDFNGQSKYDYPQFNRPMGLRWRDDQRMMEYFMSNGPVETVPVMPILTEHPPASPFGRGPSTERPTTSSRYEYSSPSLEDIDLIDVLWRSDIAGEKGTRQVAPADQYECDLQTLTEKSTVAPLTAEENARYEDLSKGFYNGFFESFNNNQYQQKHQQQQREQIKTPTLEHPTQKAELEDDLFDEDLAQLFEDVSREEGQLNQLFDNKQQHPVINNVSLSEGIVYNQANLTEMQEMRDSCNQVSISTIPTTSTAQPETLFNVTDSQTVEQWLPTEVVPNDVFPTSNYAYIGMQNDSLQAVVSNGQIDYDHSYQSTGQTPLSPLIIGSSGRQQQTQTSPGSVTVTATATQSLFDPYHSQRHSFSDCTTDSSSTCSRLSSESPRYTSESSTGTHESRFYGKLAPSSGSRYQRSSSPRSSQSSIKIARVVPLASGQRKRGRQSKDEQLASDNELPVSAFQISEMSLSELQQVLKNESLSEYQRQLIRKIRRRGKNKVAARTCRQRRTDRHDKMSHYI
The class given is functional.

Experiment [6] is described as follows: Luminescence Cell-Based Dose Confirmation HTS to Identify Activators of 5'UTR Stem-Loop Driven Alpha-Synuclein mRNA Translation in H4 Neuroglioblastoma Cells. [Related pubchem assays: 1829 (Project Summary), 1814 (Primary HTS)]. In kind it is functional.
The target of experiment [7] is T5, Sentrin-specific protease 8 (Homo sapiens, UniProt Q96LD8).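 Further: luminescence read-out of SENP8 inhibition, dose-response confirmation following an ultra-high-throughput screen.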
T5 sequence (Q96LD8 whole entry): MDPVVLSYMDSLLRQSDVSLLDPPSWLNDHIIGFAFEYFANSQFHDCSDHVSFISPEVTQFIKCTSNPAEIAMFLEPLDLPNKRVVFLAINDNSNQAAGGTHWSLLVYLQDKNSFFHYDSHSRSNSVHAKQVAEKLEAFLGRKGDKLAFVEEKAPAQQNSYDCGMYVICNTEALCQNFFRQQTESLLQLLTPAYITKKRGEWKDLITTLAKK
The class given is functional.

The test system of experiment [8] is H4. As to the kind of experiment: Luminescence Cell-Based Dose Response HTS to Identify Activators of 5'UTR Stem-Loop Driven Prion Protein mRNA Translation in H4 Neuroglioblastoma Cells. [Related pubchem assays: 1829 (Project Summary), 1814 (Primary HTS)]. The class given is functional. The following applies: Homo sapiens.
For experiment [9], the system named is INS1. Nature of the experiment: INS-1E survival protection against cytokine death – cell-based, luminescence, retest, dose response (AID 449756).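 Further: cell death triggered by IL-1 beta plus TNF-alpha plus IFN-gamma mixture; protective hits raise ATP signal compared with cytokine alone wells.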 The following applies: Rattus norvegicus. The class given is functional.
The target of experiment [10] is T6, Small ubiquitin-related modifier 1 (Homo sapiens, UniProt P63165). Nature of the experiment: SUMO1 protein-protein binding blockers, potency – biochemical, FRET, dose response (AID 624383). The class given is functional. The following applies: read-out: IC50_Mean.
In experiment [11] the target is T6, Small ubiquitin-related modifier 1. Nature of the experiment: SUMO1 protein interaction blockers, potency – biochemical, fluorescence polarization, uHTS hits, dose response (AID 624382). The class given is functional. The note with it: read-out: IC50_Mean.
For experiment [12], the target named is Induced myeloid leukemia cell differentiation protein Mcl-1 (Homo sapiens, UniProt Q07820). In kind it is functional.
Experiment [13] deals with T7, Carboxy-terminal domain RNA polymerase II polypeptide A small phosphatase 1 (Homo sapiens, UniProt Q9GZU7).
T7 sequence (Q9GZU7 whole entry): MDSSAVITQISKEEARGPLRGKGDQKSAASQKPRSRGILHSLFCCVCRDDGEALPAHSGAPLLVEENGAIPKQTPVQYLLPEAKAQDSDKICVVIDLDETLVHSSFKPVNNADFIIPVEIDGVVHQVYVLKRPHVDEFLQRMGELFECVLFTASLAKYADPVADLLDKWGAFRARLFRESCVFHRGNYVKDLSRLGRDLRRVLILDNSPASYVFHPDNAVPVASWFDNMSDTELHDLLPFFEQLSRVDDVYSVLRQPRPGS
Nature of the experiment: CTDSP1 inhibitors, concentration-response, biochemical, absorbance readout, ultra-high-throughput screen actives (AID 540297). The class given is functional.

In experiment [14] the target is Fatty acid synthase (Homo sapiens, UniProt P49327). As to the kind of experiment: inhibition of human FAS-TE enzyme activity – biochemical, kinetic fluorescence intensity, dose response (AID 624326).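 Further: rate of fluorescence rise from hydrolysis of a fluorogenic O-methyl fluorescein ester substrate.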 The class given is functional.
Experiment [15] has as its target Glucose-6-phosphate 1-dehydrogenase (Homo sapiens, UniProt P11413). Nature of the experiment: inhibition of Homo sapiens G6PD, dose series – biochemical, fluorescence, selectivity assay for P. falciparum G6PD inhibitor project, dose response (AID 504792). In kind it is functional.
Experiment [16] deals with T8, Heat shock factor protein 1 (Mus musculus, UniProt P38532).
T8 sequence (P38532 whole entry): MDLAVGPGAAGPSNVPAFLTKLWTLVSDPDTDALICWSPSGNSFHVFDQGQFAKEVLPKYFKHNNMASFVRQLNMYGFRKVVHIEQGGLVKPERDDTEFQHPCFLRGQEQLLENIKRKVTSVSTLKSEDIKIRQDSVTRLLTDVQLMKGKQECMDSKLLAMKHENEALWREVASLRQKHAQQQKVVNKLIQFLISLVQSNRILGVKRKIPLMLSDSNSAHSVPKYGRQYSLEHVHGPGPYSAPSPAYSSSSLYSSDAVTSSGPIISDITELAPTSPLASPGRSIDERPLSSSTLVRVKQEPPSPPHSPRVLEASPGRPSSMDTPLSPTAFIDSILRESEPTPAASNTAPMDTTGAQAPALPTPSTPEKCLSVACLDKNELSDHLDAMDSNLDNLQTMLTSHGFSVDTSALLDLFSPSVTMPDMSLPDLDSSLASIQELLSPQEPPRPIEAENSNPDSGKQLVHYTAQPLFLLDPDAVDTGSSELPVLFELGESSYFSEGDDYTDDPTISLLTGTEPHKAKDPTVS
Nature of the experiment: enhancement of HSF1-driven luciferase signal – cell-based, NIH3T3, luminescence, dose retest, confirmation (AID 435004).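 Further: stress induced by proteasome inhibitor MG132 added 30 min after compound; luciferase reporter driven by HSF1 response element in NIH3T3 cells; actives raise luminescence as potentiators of the MG132 stress response.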 The class given is functional.

A short description of experiment [17]: HEK-293T viability loss after treatment – luminescence, T-cell screen hits, cytotoxicity control for TCR NF-kB inhibitor project, dose response (AID 489026).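 Further: cells exposed to compound about 14 hours before the viability readout.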 The class given is functional, cell-based.
Experiment [18] deals with Large T antigen (Simian virus 40, UniProt P03070). The class given is functional, Betapolyomavirus macacae.

Each structure is given as a SMILES string. Active and inactive are the calls of the source. A value given as a limit tells only on which side of the number the result lay.

T6 sequence (P63165 whole entry): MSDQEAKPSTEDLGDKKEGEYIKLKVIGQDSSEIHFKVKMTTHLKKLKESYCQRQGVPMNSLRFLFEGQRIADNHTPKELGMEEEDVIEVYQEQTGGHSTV
Chain of Glucose-6-phosphate 1-dehydrogenase (P11413 whole entry): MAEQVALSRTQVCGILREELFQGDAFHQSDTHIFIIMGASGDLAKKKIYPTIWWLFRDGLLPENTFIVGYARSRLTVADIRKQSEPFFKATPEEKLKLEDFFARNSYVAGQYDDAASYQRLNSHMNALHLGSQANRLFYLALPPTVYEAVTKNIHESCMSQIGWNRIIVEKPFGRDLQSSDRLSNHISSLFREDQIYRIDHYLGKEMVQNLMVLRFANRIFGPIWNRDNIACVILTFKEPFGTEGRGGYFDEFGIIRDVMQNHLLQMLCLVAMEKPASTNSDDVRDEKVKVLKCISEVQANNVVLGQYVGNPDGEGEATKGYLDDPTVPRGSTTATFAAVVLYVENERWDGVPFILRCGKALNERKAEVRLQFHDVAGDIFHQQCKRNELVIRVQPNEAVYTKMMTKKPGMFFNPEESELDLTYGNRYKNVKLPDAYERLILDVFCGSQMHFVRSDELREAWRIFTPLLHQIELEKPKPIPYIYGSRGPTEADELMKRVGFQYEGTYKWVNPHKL
Chain of Fatty acid synthase (P49327 whole entry): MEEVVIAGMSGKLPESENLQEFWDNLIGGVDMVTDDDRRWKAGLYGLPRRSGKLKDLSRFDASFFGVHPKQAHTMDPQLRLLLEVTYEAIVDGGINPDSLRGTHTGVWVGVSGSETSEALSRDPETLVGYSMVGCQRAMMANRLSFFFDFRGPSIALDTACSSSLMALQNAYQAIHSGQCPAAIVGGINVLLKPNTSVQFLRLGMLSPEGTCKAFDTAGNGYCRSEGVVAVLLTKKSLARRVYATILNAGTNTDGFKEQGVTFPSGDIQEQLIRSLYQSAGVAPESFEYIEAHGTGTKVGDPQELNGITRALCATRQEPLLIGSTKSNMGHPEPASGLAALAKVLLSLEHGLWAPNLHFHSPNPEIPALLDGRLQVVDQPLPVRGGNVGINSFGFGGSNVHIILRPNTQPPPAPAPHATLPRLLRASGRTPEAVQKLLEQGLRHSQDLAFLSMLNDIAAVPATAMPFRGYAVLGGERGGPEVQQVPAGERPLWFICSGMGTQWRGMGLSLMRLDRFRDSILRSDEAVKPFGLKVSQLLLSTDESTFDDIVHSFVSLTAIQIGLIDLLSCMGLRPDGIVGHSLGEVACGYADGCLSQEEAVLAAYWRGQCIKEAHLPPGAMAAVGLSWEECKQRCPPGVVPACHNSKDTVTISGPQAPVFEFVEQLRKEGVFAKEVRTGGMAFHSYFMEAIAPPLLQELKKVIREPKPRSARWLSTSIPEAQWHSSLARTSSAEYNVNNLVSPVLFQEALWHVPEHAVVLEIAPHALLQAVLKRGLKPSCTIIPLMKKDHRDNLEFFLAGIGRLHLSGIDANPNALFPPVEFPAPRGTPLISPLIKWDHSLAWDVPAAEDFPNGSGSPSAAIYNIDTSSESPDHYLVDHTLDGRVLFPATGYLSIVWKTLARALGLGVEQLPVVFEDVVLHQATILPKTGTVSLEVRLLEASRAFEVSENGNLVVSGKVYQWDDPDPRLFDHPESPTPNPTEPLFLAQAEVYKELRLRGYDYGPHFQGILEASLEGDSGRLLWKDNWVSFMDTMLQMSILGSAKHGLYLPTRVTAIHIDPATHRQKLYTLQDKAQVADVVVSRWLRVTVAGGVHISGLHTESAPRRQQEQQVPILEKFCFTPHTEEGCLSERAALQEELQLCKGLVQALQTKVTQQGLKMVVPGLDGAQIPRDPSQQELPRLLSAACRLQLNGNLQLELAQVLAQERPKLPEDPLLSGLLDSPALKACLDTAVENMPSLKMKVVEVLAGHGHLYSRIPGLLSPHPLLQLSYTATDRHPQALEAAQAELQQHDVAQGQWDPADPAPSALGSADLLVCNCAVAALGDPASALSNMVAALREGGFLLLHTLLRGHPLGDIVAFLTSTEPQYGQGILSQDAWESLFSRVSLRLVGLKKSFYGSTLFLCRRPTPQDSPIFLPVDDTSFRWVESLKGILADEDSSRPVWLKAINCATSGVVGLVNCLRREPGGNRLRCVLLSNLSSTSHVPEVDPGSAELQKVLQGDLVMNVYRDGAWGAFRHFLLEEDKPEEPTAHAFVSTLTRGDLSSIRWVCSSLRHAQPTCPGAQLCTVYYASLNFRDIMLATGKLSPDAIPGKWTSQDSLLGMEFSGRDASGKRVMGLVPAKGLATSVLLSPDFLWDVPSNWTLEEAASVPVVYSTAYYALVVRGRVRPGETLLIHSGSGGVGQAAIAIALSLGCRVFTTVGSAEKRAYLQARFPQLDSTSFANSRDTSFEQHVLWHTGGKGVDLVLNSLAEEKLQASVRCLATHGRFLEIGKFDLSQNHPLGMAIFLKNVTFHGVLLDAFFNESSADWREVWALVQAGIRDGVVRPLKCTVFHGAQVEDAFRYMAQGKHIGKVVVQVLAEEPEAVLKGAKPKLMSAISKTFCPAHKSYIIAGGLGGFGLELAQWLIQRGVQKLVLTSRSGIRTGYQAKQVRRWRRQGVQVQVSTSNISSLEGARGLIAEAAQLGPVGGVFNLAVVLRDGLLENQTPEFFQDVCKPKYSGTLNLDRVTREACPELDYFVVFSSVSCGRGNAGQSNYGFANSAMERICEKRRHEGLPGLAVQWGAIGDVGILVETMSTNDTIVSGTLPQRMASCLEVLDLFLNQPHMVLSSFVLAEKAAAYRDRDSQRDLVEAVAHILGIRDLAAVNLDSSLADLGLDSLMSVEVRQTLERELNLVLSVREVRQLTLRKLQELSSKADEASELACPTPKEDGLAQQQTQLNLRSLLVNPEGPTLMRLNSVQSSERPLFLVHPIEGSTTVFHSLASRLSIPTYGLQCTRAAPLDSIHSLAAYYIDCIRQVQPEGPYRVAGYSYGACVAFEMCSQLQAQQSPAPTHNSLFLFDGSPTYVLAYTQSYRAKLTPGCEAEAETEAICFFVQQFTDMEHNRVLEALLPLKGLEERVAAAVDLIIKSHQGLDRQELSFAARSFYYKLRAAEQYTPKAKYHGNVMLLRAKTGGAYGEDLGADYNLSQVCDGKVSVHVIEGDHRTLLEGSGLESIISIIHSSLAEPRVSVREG
Chain of Induced myeloid leukemia cell differentiation protein Mcl-1 (Q07820 whole entry, the tested form may be a part): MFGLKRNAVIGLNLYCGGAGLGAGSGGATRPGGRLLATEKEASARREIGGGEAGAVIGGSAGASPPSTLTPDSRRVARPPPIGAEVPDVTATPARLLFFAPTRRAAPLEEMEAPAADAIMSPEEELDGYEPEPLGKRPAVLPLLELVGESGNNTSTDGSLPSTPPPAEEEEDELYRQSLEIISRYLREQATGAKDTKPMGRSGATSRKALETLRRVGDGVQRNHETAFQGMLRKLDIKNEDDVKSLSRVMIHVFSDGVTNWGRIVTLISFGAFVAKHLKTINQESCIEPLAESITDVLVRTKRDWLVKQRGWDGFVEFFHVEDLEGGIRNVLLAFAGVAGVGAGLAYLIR
Chain of Large T antigen (P03070 whole entry): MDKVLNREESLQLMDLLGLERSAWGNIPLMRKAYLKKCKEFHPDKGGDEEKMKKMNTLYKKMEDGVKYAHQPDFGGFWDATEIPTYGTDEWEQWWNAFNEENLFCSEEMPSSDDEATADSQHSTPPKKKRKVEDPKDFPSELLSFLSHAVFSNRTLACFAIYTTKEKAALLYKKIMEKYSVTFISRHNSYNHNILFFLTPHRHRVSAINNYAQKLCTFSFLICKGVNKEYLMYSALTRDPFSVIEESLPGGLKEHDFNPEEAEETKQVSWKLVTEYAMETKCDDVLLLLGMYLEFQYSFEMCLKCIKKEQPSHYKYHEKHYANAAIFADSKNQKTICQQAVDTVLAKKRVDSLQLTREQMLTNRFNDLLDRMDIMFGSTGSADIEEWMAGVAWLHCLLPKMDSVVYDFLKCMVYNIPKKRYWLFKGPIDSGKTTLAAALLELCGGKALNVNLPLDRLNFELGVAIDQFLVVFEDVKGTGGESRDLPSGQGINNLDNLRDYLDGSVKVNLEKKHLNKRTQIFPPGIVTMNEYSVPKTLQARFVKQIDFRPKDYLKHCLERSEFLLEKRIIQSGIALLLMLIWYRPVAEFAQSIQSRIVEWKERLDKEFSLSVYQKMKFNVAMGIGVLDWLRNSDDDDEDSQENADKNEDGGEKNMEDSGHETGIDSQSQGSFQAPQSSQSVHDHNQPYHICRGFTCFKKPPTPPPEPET

The EC50 is the midpoint of the concentration-response curve. Consider `O=C(Nc1nccs1)c1ccc(-c2ccccc2Cl)o1`, for which the IC50 in [1] is 22 µM (active); in [2], > 100 µM (inactive); in experiment [3] it was 4.57 µM (active); in experiment [5] it was > 100 µM (inactive); in experiment [7], 25.1 µM (active). For the same compound, the EC50 is 106 µM (active) in experiment [4], 27 µM (active) in experiment [6] and 23.5 µM (inconclusive) in [8].

One may read the AC50 as the midpoint of the concentration-response curve, whichever way the signal moves. For the compound `O=C(Nc1ccc(Nc2ccncc2)cc1)c1ccc(Nc2ccnc3ccc([N+](=O)[O-])cc23)cc1[N+](=O)[O-]`, the concentration at half-maximal activity (AC50) in experiment [9] is 10.5 µM (active). Besides, the figures for the IC50 in experiment [10], in experiment [11] and in experiment [12] were 10.3 µM (active), > 66.6 µM (inactive) and 2.46 µM (active), respectively.

On to `CCc1ccc(OCC(=O)NNC(=O)c2ccc(NC(=O)C3CC3)cc2)cc1`, for which the IC50 in experiment [13] is 10.5 µM (active).

In the case of `O=C(CCN1C(=O)/C(=C/c2ccc(Cl)cc2)SC1=S)Nc1ccc(C(=O)O)cc1`, the IC50 in [13] is 2.64 µM (active).

Regarding `O=C(CCCc1ccccc1)c1ccccc1`, the IC50 in experiment [1] is 13.5 µM (active); in experiment [2] it was 20.4 µM (active); in experiment [3], 7.31 µM (active); in experiment [7] it was 54.9 µM (active).

Consider `O=C(CCN1C(=O)S/C(=C\c2ccc(Cl)cc2)C1=O)Nc1ccc(C(=O)O)cc1`, for which the IC50 in [13] is 6.17 µM (active).

Turning to `O=C(OCc1ccc([N+](=O)[O-])cc1)c1cc([N+](=O)[O-])ccc1N1CCOCC1`, the IC50 in experiment [14] was 2.73 µM (active).

`C[C@]12CC[C@@H]3c4cc(O)c(O)cc4CC[C@H]3[C@@H]1CC[C@@H]2O`: the IC50 is 72.5 µM (inactive) in experiment [15], > 80 µM (inactive) in experiment [17] and > 100 µM (active) in experiment [18]. Besides, in experiment [16], the EC50 is 4.07 µM (active).
